Data: PMC11374673, “Discovery of isoquinoline sulfonamides as allosteric gyrase inhibitors with activity against fluoroquinolone-resistant bacteria” (Nature Chemistry, 2024)
Values after ≈ are worked out from the molar mass of the structure shown. Like-named read-outs stand apart in the source and are kept apart here.

What was measured:
[1] = test system: 60-resistant (60-r) isolates of E. coli W3110; test: microbe, parasite or virus in culture; format: cell-based, Escherichia coli; conditions: Escherichia coli
Protocol: (§1) MIC was determined by broth microdilution. Single-colony cultures were grown to exponential phase (OD600 of 0.5) aerobically at 37 °C. In case of strains from the Keio collection, 50 µg ml^−1 kanamycin was supplemented to the media to ascertain a homogeneous population. The bacterial suspensions were diluted 100-fold in CAMHB and 50 µl was added to a twofold serial dilution series of test compounds (50 µl per well) in polypropylene 96-well microtitre plates to reach a volume of 100 µl. The plates were sealed with breathable membranes and incubated overnight at 37 °C with constant shaking (600 r.p.m.). The MIC was determined as the lowest concentration at which no visible bacterial growth was observed as compared with the inoculum controls from the median of a minimum of triplicates.
The plates were incubated at 37 °C and checked for growth after 24 and 48 h. […] Nine colonies with an increased MIC were selected for further analysis and stored as glycerol stocks.

HEK293T = test: Cytotoxicity assay (MTT); format: cell-based, human; conditions: Homo sapiens, HEK-293T, 24 h, MTT
In short: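 HEK293T cells, maintained at 37 °C and 7% CO2 in Dulbecco’s modified Eagle medium with GlutaMax, antibiotics and serum, were plated in clear 96-well plates in 100 µl medium containing 1% fetal bovine serum and left 24 h to attach. After 24 h compound exposure, MTT (0.40 mg ml^−1) was added for 2 h. Formazan was dissolved in 100 µl DMSO and absorbance measured at 570 nm. Background-corrected IC50 values came from variable-slope non-linear fits.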

HepG2 = test: Cytotoxicity assay (MTT); format: cell-based, human; conditions: Homo sapiens, HepG2, 24 h, MTT, 24 h
E. coli W3110 [2] = test: H-89 derivatives rescreen, 50 µM; format: cell-based; conditions: Escherichia coli, H-89 derivative rescreen, highest 50 µM
Protocol: From glycerol stocks, E. coli W3110 was cultured on blood agar plates (PB5039A, Thermo Scientific) by overnight (18 ± 2 h) aerobic incubation at 37 °C. A single colony was transferred to tryptic soy broth (TSB, 02-200-500, Scharlab). The cultures were grown to exponential phase (OD600 of 0.5) at 37 °C. The bacterial suspensions were diluted 200-fold in cation-adjusted Mueller–Hinton broth (CAMHB) and 99 µl was added to a library of test compounds (1 µl 10 mM DMSO stock, per well in technical duplicates) in polypropylene 96-well microtitre plates to reach a volume of 100 µl and a final concentration of 100 µM for each test compound and a maximum of 1% DMSO. […] Screening hits were selected from the wells where no visible bacterial growth was observed, as compared with the inoculum controls containing 1% DMSO. The follow-up screen of H-89 derivatives was performed under similar conditions with a final concentration of 50 µM.

[3] = test system: E. coli BW25113 and single-gene knockouts; test: MIC on E. coli strains of the Keio collection; format: cell-based, Escherichia coli; conditions: Escherichia coli, BW25113, read-out: MIC E. coli BW25113, parent strain
Protocol: as §1

E. coli W3110 [4] = test: MIC by broth microdilution; format: cell-based, Escherichia coli; conditions: Escherichia coli
In short: (§2)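 Broth microdilution in CAMHB: twofold compound series inoculated with 100-fold-diluted bacteria from exponential growth (OD600 0.5, 37 °C); kanamycin 50 µg ml^−1 added for Keio collection strains. Overnight incubation, 37 °C, 600 r.p.m. shaking.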

K. pneumoniae ATCC 29665 = test: MIC by broth microdilution; format: cell-based, Klebsiella pneumoniae; conditions: Klebsiella pneumoniae, ATCC29665, read-out: MIC K. pneumoniae ATCC 29665
In short: as §2

E. coli ATCC 25922 = test: MIC by broth microdilution; format: cell-based; conditions: Escherichia coli, ATCC25922; read-out: MIC E. coli ATCC 25922
Protocol: as §1, with “r.p.m.).” for “r.p.m.). The MIC was determined as the lowest concentration at which no visible bacterial growth was observed as compared with the inoculum controls from the median of a minimum of triplicates.”

P. aeruginosa ATCC 27853 = test: MIC by broth microdilution; format: cell-based; conditions: Pseudomonas aeruginosa, ATCC27853; read-out: MIC P. aeruginosa ATCC 27853
Protocol: as §1

[5] = test system: S. aureus ATCC 29213 / ATCC BAA1717; test: MIC by broth microdilution; format: cell-based; conditions: Staphylococcus aureus
Protocol: as §1

A. baumannii ATCC BAA747 = test: MIC by broth microdilution; format: cell-based; conditions: Acinetobacter baumannii, ATCCBAA747; read-out: MIC A. baumannii ATCC BAA747
Protocol: as §1

Compound: O=S(=O)(NCCNCc1ccc(-c2cccnc2)cc1)c1cccc2cnccc12 [Compound 1]
- MIC ([1]; E. coli W3110 60-r1): > 100 µM
- MIC ([1]; E. coli W3110 60-r3): 100 µM (≈ 41.9 µg/mL)
- MIC ([1]; E. coli W3110 60-r6): > 100 µM
- IC50 (HEK293T): > 50 µM
- IC50 (HepG2): > 50 µM
- MIC (E. coli W3110 [2]): 6.25 µM (≈ 2.62 µg/mL)
- MIC [3]: 12.5 µM (≈ 5.23 µg/mL)
- MIC (E. coli W3110 [4]; W3110, WT, broth microdilution, read-out: MIC E. coli W3110): 6.25 µM
- MIC (E. coli W3110 [4]; W3110, follow-up of the 12 library hits, read-out: MIC E. coli): 6.25 µM
- MIC (E. coli W3110 [4]; W3110, read-out: MIC E. coli): 2.6 µg/mL
- MIC (K. pneumoniae ATCC 29665): 12.5 µM (≈ 5.23 µg/mL)
- MIC (E. coli ATCC 25922): 25 µM (≈ 10.5 µg/mL)
- MIC (P. aeruginosa ATCC 27853): > 50 µM
- MIC ([5]; read-out: MIC S. aureus ATCC 29213): > 50 µM
- MIC ([5]; read-out: MIC S. aureus ATCC BAA1717): > 50 µM
- MIC (A. baumannii ATCC BAA747): > 50 µM
